Test results published in US20040259865A1, “Pyrimidone compounds and pharmaceutical compositions containing the same” (priority 2001, published 2004).
Values joined by “and” are separate entries in the source; they are usually repeats but may differ in a detail not shown here. Identical values can stand only once.

Legend:
[1] = target: T1, human adenosine A1 receptor (Homo sapiens, UniProt P30542); experiment: Ability to bind to adenosine A1 receptor (3H-CCPA); format: binding; conditions: CHOK1 membranes, Cheng-Prusoff
T1 sequence (P30542 1-326): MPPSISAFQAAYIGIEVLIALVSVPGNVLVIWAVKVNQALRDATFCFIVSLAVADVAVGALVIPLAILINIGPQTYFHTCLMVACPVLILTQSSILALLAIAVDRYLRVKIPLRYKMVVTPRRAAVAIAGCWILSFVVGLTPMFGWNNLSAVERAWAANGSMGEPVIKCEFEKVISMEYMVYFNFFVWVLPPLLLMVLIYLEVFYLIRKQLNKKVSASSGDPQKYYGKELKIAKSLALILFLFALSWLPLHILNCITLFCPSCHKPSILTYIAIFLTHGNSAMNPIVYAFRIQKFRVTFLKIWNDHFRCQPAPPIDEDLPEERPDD
Description: To 0.45 ml of this membrane sample suspension were added 0.025 ml of 60 nM tritium-labeled chlorocyclopentyl adenosine (3H-CCPA, from NEN Ltd.) and 0.025 ml test compound. This mixture was left at 30° C. for 120 minutes, filtered rapidly under suction through a glass fiber filter (GF/B, from Whatman), and immediately washed twice with 5 ml of 50 mM water-cooled Tris-HCl buffer. Thereafter, the glass fiber filter was transferred to a vial, a scintillator was added thereto, and the radioactivity on the filter was measured by a liquid scintillation counter.
Inhibition (%)=[1−{binding in the presence of the test compound-non-specific binding)/(total binding-non-specific binding)}]×100
In the above formula, the total binding means ^3H—CCPA-bound radioactivity in the absence of the test compound; the non-specific binding means ^3H-CCPA-bound radioactivity in the presence of 100 μM RPIA ([R]-[1-methyl-2-phenylethyl]adenosine); and the binding in the presence of the test compound means ^3H-CCPA-bound radioactivity in the […] of the test compound at predetermined concentrations. The inhibition constant (Ki value) in the table was determined from the formula of Cheng-Prusoff.

[2] = Urine volume / diuretic action in rat (Test Example 2); format: in vivo; conditions: for Urine Volume (g/100 g body weight): 180 minutes
Description: (§1) SD IGS rats (6-weeks-old, from Charles River) were placed in cages (3 animals/cage) and preliminarily allowed food and water ad libitum and raised for 1 week. On the day of the experiment, their weight was measured, a water-absorbing sheet was placed below each cage, and the animals were fasted but allowed water ad libitum throughout the experiment. Three hours after fasting was initiated, the fecal pellets were recovered from each cage and observed for abnormality before the experiment, and then the compound suspended or dissolved in 0.5% (W/V) methyl cellulose (MC) was orally administered into each rat in a dose of 5 ml/kg. On one hand, 0.5% (W/V) MC only was orally given to the control group. After administering the compound, the rats were returned to the cage provided with anew water-absorbing sheet of known weight, and 180 minutes after the administration, the fecal pellets on the water-absorbing sheet were recovered from each cage, and the external appearance was observed, and the number of fecal pellets was counted. The number of fecal pellets is expressed per each cage (Table 4). After the fecal pellets were recovered, the water-absorbing sheet was weighed, and the weight determined by subtracting the initial weight of the water-adsorbing sheet from the weight after the experiment was regarded as the volume of urine and expressed as the volume of urine per 100 g of the body weight (Table 4).

SD IGS rats [3] = experiment: Defecation-promoting action in rat (Test Example 2); format: in vivo; conditions: for The number of fecalpellets/3 rats: 180 minutes after administration; for Defecation-promoting action (in words): Table 4
Description: as §1

SD IGS rats [4] = experiment: Contribution of A2b inhibition to defecation-promoting action (Test Example 3); format: in vivo, rat; conditions: 180 minutes
Description: as §1
After administering the compounds, the rats were returned to the cage under which a new water-absorbing sheet had been installed, and after 180 minutes, the fecal pellets on the water-absorbing sheet were recovered from each cage, and the outward appearance was observed and the number of fecal pellets was counted. The number of fecal pellets is expressed per cage (Table 5).

colon tract = experiment: Inhibitory effect of adenosine receptor antagonist on suppressing action of NECA on Carbachol-stimulated contraction of the colon tract; design: species or system rat; conditions: for Contraction (%) Mean: Carbachol 0.3 μM + NECA 1 μM = 0%, Carbachol 0.3 μM = 100%; for Inhibition of the suppressing effect of NECA on the contraction (in words): rat colon tract, Carbachol + NECA
Description: The abdomen of a rat under anesthesia with ether was opened, and from the rectum to the cecum was excised therefrom and soaked in ice-cooled Tyrode solution (containing 136 mM NaCl, 2.7 mM KCl, 0.4 mM NaH2PO4.2H2O, 5.6 mM glucose, 11.9 mM NaHCO3, 1 mM MgCl2.6H2O, 1.8 mM CaCl2). Surrounding connective tissues were removed, and the intestinal tract was cut at positions apart by 1.5 cm from the rectum and by 3 cm from the cecum, to give a colon tract of about 3 cm in full length. Both the terminals of the colon tract were pinched respectively with Serrefines (trade name) to which a string had been connected, and the colon tract with the side of the cecum facing upward was immediately suspended in a Magnus tube filled with Tyrode solution previously warmed at 37° C., and then equilibrated by bubbling with a gas (O2/CO2=95/5). The string connected to the Serrefines (trade name) at the side of the cecum was suspended, and the change in the length of the colon tract was detected with an amplifier for strain pressure (Nihon Kohden Corporation).
In the experiment, 3 samples were used.

[5] = target: T2, human adenosine A2b receptor (Homo sapiens, UniProt P29275); experiment: Inhibition of NECA-stimulated production of cAMP in adenosine A2b receptor-expressing cells; format: cell-based
T2 construct: expressed in transfected cells; host or cells: CHOK1 cells
T2 sequence (P29275 1-332): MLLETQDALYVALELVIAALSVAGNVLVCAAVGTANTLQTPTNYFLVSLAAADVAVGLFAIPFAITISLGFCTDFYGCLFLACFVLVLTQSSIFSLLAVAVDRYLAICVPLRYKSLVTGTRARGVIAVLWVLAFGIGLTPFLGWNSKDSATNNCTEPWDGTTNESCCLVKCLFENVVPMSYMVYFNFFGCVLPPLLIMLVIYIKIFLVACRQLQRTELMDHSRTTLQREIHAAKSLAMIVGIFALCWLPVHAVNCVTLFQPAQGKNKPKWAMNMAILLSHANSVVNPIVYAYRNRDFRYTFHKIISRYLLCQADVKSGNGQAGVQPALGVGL
Description: CHOK1 cells where a human adenosine A2b receptor had been expressed in excess were plated onto a 24-well plate at a density of 1.5×10^5 cells/well, cultured overnight, and used in the experiment. […] That is, the adhering cells were washed twice with 2 ml/well Krebs-Ringer buffer solution (containing 0.1% BSA; pH 7.4) and pre-incubated for 30 minutes in a volume of 0.5 ml/well. […] After pre-incubation for 15 minutes, the reaction was terminated with 0.1 N HCl in a volume of 300 μl/well. Measurement of intracellular cAMP was carried out using a cAMP enzyme immunoassay kit produced by Amersham.

SD IGS rats [6] = experiment: Evaluation of defecation-promoting action (Tables 8 and 10); format: in vivo, rat; conditions: 3 mg/kg oral; Table 8, n = 4 cages/group
Description: For example, the defecation-promoting actions of 8-phenyltheophylline (“8-PT” in the table below) and 5-[6-amino-8-(3-fluorophenyl)-9H-9-purinyl]-1-methyl-1,2-di hydro-2-pyridinone (Compound II in the table below) disclosed in Example Number 5 described in WO 2001/2400 were as shown below. 8-PT can be easily produced according to the description of Drug Development Research 47: 45-53 (1999), or is easily available as a commercial product (in this test, it was purchased from Sigma).
That is, SD IGS rats (6- to 7-weeks-old, from Charles River) were placed in cages (3 animals/cage) and preliminarily allowed food and water ad libitum and raised for 1 week. On the day of the experiment, their weight was measured, a water-absorbing sheet was placed below each cage, and the animals were fasted but allowed water ad libitum throughout the experiment. Thee hours after fasting was initiated, the fecal pellets were recovered from each cage and observed for abnormality before the experiment, and then the compound suspended in 0.5% (w/v) methyl cellulose (MC) was orally administered in a dose of 5 ml/kg. On one hand, 0.5% (w/v) MC only was orally given to the control group. After administration of the compound, the rats were returned to the cage provided with a new water-absorbing sheet, and 180 minutes after the administration, the fecal pellets on the water-absorbing sheet were recovered from each cage, and the external appearance was observed, and the number of fecal pellets was counted. The number of fecal pellets is expressed per each cage.

## CCn1c(=O)c2c(nc(/C=C/c3ccc(OC)c(OC)c3)n2C)n(CC)c1=O [KW 6002]
[1]
  Ki: 22.6 µM
[2]; 1 mg/kg oral
  Urine Volume (g/100 g body weight): 0.72 ± 0.07 g/100 g body weight
[2]; 3 mg/kg oral
  Urine Volume (g/100 g body weight): 0.76 ± 0.05 g/100 g body weight
SD IGS rats [3]; 1 mg/kg oral
  The number of fecalpellets/3 rats: 6.67 ± 1.63 fecalpellets/3 rats
SD IGS rats [3]; 3 mg/kg oral
  The number of fecalpellets/3 rats: 7.00 ± 0.86 fecalpellets/3 rats
SD IGS rats [3]; rat, oral
  Defecation-promoting action (in words): low defecation-promoting action
SD IGS rats [4]; KW 3902 0 mg/kg + KW 6002 (1 mg/kg)
  The number of fecalpellets/3 rats: 7.00 ± 1.58 fecalpellets/3 rats
Colon tract; antagonist 0.1 μM
  Contraction (%) Mean: 5.2%
Colon tract; antagonist 0.4 μM
  Contraction (%) Mean: 1.1%
Colon tract; antagonist 1.4 μM
  Contraction (%) Mean: −2.9%
Colon tract; antagonist 4.4 μM
  Contraction (%) Mean: −3.9%
Colon tract
  Inhibition of the suppressing effect of NECA on the contraction (in words): did not show any inhibitory effect

## Nc1ncc(-c2ccncc2)c(-c2ccco2)n1 [Compound I, 4-(2-Furyl)-5-(4-pyridyl)-2-pyrimidinyl amine]
[1]
  Ki: 0.66 µM
[2]; 3 mg/kg oral
  Urine Volume (g/100 g body weight): 0.79 ± 0.09 g/100 g body weight
[2]; 10 mg/kg oral
  Urine Volume (g/100 g body weight): 1.23 ± 0.13 g/100 g body weight
[2]; rat, oral
  Diuretic action (comparison in words): weaker diuretic action than the A1-selective antagonist KW3902
SD IGS rats [3]; 3 mg/kg oral
  The number of fecalpellets/3 rats: 16.33 ± 1.82 fecalpellets/3 rats
SD IGS rats [3]; 10 mg/kg oral
  The number of fecalpellets/3 rats: 30.00 ± 2.79 fecalpellets/3 rats
SD IGS rats [3]; rat, oral
  Diarrhea: did not cause diarrhea
  Defecation-promoting action (in words): evidently higher defecation-promoting action than the A1-selective antagonist KW3902 or the A2a-selective antagonist KW6002
[5]
  IC50: 0.0084 µM
SD IGS rats [4]; 3 mg/kg, without KW 6002
  The number of fecalpellets/3 rats: 34.00 ± 1.00 fecalpellets/3 rats
SD IGS rats [6]
  The number of fecalpellets/3 rats: 19.75 ± 2.50 fecalpellets/3 rats and 20.75 ± 3.15 fecalpellets/3 rats
Colon tract; antagonist 0.1 μM
  Contraction (%) Mean: 71.5%
Colon tract; antagonist 0.4 μM
  Contraction (%) Mean: 111.0%
Colon tract; antagonist 1.4 μM
  Contraction (%) Mean: 122.0%
Colon tract; antagonist 4.4 μM
  Contraction (%) Mean: 85.9%
Colon tract
  Inhibition of the suppressing effect of NECA on the contraction (in words): inhibited the suppressing effect of NECA on the contraction
